The values that follow come from patent US9668960B2, “Methods useful in studying or modulating skin or hair pigmentation, plant extracts for use in compositions and cosmetic care method” (L V M H RECHERCHE, priority 2008, dated 2017).

One test concerns Myo-X. As to the kind of experiment: Myo-X protein expression by Western blotting in normal human melanocytes. As to conditions: EM (F39), 12 h. The test is classed as cell-based. As for the experimental part:
Western blot analysis: EMc in a confluent T225 flask were trypsinised and seeded into T25 flask with full medium and allowed to attach overnight. 24 h before treatment the medium was replaced with starved medium for 24 h. Cells were washed 3-times with sterile PBS, and incubated in starved medium alone, or L-18 (0.001%), L-19 (1%), L-20 (0.5%), L-21 (10 μg/ml), L-22 (1%) and L-23 (0.05 μg/ml) for 12 and 72 h. Controls included IBMX (100 μM) and niacinamide (10 μM).
40 μg of total protein from each cell extract was electrophoresed in reducing SDS-8%-PAGE and blotted on PVDF membranes (Millipore Corporation, Bedford, Mass.). […]
After extensive washes the blots were incubated with horseradish peroxidise conjugated secondary antibodies for 2 h. […] The chemiluminescent signal was detected by exposing the blot strips to Kodak XRA X-ray film (Kodak, UK) at various exposure times, followed by development in developing solution (Kodak, UK) until bands appeared, rinsed in tap water, fixed in the fixer (Kodak, UK) until the film turned blue, then rinsed with tap water and allowed to dry. […]
(A) Cell extracts were analyzed by Western blotting using anti-Myo-X and anti-β-actin as a loading control.
(B) Densitometric analysis of Myo-X and actin band intensities expressed as percentage change compared to unstimulated controls. […]

The subject of a further test is FM55 melanoma cells. Kind of test: Melanin assay (melanogenesis) in moderately-pigmented FM55 melanoma. The settings on record: 72 h; for Changes in melanin levels, FM55 % change: L-18 0.001%, L-19 1%, L-20 0.5%, L-21 10 μg/ml, L-22 1%, L-23 0.05 μg/ml, IBMX 100 μM, NH4Cl 100 μM, niacinamide 10 μM, vs basal; for Melanin content, FM55 (pg/cell): same doses as E3, basal 9.92. Format: cell-based, human. As for the experimental part:
Cells were then washed 3-times with sterile PBS and supplemented with 350 μl of either fresh serum-free RPMI medium (melanoma cells) or starved serum-free and BPE-free melanocyte medium (EM) and incubated at 37° C. and 5% CO2 for 24 h. Cells were then washed with sterile PBS 3-times and incubated with IBMX 1×10^-4 M at 37° C. and 5% CO2 for 12, 24, and 72 h. Cells were then gently washed 3-times with sterile PBS and fixed in ice-cold methanol for 10 minutes at -20° C. Slides were stored at -20° C. until immunocytochemistry was performed. […] The melanin standards were pipetted into a 96 well plate to produce a calibration curve for the assessment of melanin content in the test samples. 400 μl of 1 M NaOH was added to each cell pellet and dissolved on a heat block (100° C.) for 15 minutes. The pellets were vortexed vigorously and the solubilized pellet was pipetted into the same 96-well plate. The optical densities of the sample were read at […] on a DYNEX REVELATION 4.02 program. Melanin content of each test sample was read from the calibration curve. […] In addition IBMX and NH4Cl (positive melanocytic modulators) and niacinamide (negative modulator) were used as controls. […] Controls: Melanocytic modulators: IBMX (100 μM), NH4Cl (100 μM), and niacinamide (10 μM). (A) Melanin content was determined spectrophotometrically (475 nm) after sodium hydroxide solubilisation. […] (B). Results were expressed as the change in melanin content (pg/cell) compared to unstimulated control levels. Means are ±SEM of 3 independent experiments with *P<0.05, **P<0.01, ***P<0.001.

Another test concerns tyrosinase. Kind of test: DOPA oxidase detection for tyrosinase activity in FM55 melanoma. The test is classed as cell-based, human. As to conditions: 72 h; for Changes in tyrosinase activity, FM55 % change: same doses as E5, vs basal. As for the experimental part:
The cells were prepared for SDS-PAGE and transblotted onto PVDF membranes. 70 μg of un-reduced protein extract without boiling was pipetted into the appropriate wells of 8% SDS-PAGE gels. […] The L-DOPA reaction was stopped by washing the membrane in distilled water and the membrane was scanned. […] In addition IBMX and NH4Cl (positive melanocytic modulators) and niacinamide (negative modulator) were used as controls. […] Controls: Melanocytic modulators: IBMX (100 μM), NH4Cl (100 μM), and niacinamide (10 μM.). (A) Protein extracts were electroblotted and membranes stained with L-DOPA for the estimation of tyrosinase activity. (B) Densitometric scanning of band intensities and values were expressed as the fold increase compared to unstimulated control levels. Means are ±SEM of 3 independent experiments with *P<0.05, **P<0.01, ***P<0.001.

On to `NC(=O)c1cccnc1` [niacinamide], for which the “Myo-X expression reduced by” value in the test with Myo-X (niacinamide 10 μM) was 60%. In the test with FM55 melanoma cells, the “Changes in melanin levels, FM55 % change” value is −5.94% and the “Melanin content, FM55 (pg/cell)” value is on record as “(9.33) pg/cell”. Also, in the test on tyrosinase, the “Changes in tyrosinase activity, FM55 % change” value is reported as −3.31%.

In the case of `CC(C)Cn1c(=O)n(C)c(=O)c2[nH]cnc21` [IBMX], in the test on Myo-X (IBMX 100 μM), the “increase in Myo-10 expression, fold versus untreated controls” value is 3 fold. In the test on FM55 melanoma cells, the “Changes in melanin levels, FM55 % change” value is reported as “+250.8%” and the “Melanin content, FM55 (pg/cell)” value was “(34.8) pg/cell”. Moreover, the “effect on melanin content compared with basal levels” value in the test with FM55 melanoma cells (FM55 melanoma cells, doses as E3) was “visible increases in melanogenesis”. The “Changes in tyrosinase activity, FM55 % change” value with tyrosinase is on record as “+141.72%”. Moreover, the “effect on tyrosinase (dopa oxidase) activity compared with basal levels” value with tyrosinase (FM55 melanoma cells, doses as E5) is “dramatic increase in dopa oxidase activity of tyrosinase”.
